Results reported in patent publication US20040109845A1, “Method for inhibiting articular cartilage matrix calcification” (priority 2001, published 2004).
“Also recorded” adds a separate entry of the source.

Columns and labels:
[1] = tested on: meniscal cells and TC28 cells; test: Matrix calcification, quantitative Alizarin Red S binding assay; assay type: cell-based, human; conditions: polyHEME culture up to 10 days; cytokines 10 ng/ml or TGase transfection
Experimental: TC28 cells and meniscal cells were transfected with empty plasmid or a TGase expression construct, and then transferred to polyHEME and cultured for up to 10 days, as described above. For comparison purposes, control untransfected cells were treated with IL-1 or TGFβ(10 ng/ml each) for up to 10 days. To measure matrix calcification, media and cells were removed from the PolyHEME-coated dishes, and 1 ml Alizarin Red S solution (0.5% v/v Alizarin Red S, pH 5.0) added to washed plates at 23° C. for 10 min. After further washing, 100 mM Cetylpyridium Chloride was added for 10 min to release the remaining calcium-bound Alizarin Red S. The solution was collected and read at OD570, with 1.0 OD570=1 unit of Alizarin Red released per μg of DNA per culture dish. n=6 each, studied in triplicate, and using 6 different knee meniscal donors. *p<0.05.
To promote matrix calcification in short-term cultures, we modified a nonadherent chondrocyte culture system (37), and assessed cells that formed calcifying nodules over 10 days in culture. In brief, meniscal and TC28 cells, at 24 hours after the transfection, were washed and removed from the dish using 0.2 mg/ml EDTA, pH 8.0, then transferred to 6 well plates that had been previously coated with a 10% (wt./v) in 95% ethanol solution of Poly (2-Hydroxyethyl methacrylate) (polyHEME). […]
To assay calcification of the pericellular matrix of meniscal cells and TC28 cells, we used a quantitative Alizarin Red S binding assay (38). […] The solution was collected and read at OD570 on a SpectraMAX microplate reader (Molecular Devices, Sunnyvale, Calif.), with 1 OD570=1 unit of Alizarin Red released per μg of DNA per culture dish. We extracted matrix crystals from plates under each condition using a papain-hypochlorite method (39), and the crystals were embedded in Spurr epoxy resin, sectioned, and viewed on a Philips EM340 transmission electron micrograph and analyzed by electron diffraction (40,41).

[2] = tested on: TGase activity in knee meniscal cells and TC28 cells; test: TGase activity in nonadherent nodule-forming culture on polyHEME; assay type: cell-based, human; conditions: polyHEME plates, β-glycerophosphate, ascorbate, dexamethasone, up to 10 days; cytokines 10 ng/ml or TGase transfection
Experimental: FIG. 10 refers to effects of direct Factor XIIIa and tTGase expression on TGase activity in meniscal cells and TC28 cells. Human chondrocytic TC28 cells or normal knee meniscal cells (5×10^5), were plated in 60 mm dishes and allowed to adhere overnight, as described in the Methods. Two μg of plasmid DNAs or empty plasmid vector were then transfected, performed as described above. After 24 hrs, the cells were removed from the dishes and plated on polyHEME-coated tissue culture plates and media supplemented with 10 mM P-glycerophosphate, ascorbatte (50 μg/ml) and dexamethasone (10^−8 M), which stimulated the cells to form mineralizing nodules for 3-10 days in culture. For comparison purposes, cells were treated only with IL-1 or TGFβ (10 ng/ml each) for up to 10 days. At each time point designated, the cell nodules were collected and lysed, and TGase activity then determined as previously described. For meniscal cells, data pooled from 6 donors studied in triplicate. For TC28 cells, n=6 each, studied in triplicate. Statistics not indicated on this graph, but p<0.05 for the increases in TGase activities in response to both Factor XIIIa and tTGase transfection, and for IL-1 treatment, at all time points.
TGase activity was measured by modifications to a previously described method (35). Specifically, we coated 96 well ImmunoModule plates (Nunc, Rochester, N.Y.) with 200 μl of 20 mg/ml N,N-dimethylcasein for 1 hr at 23° C. The N,N-dimethylcasein was removed and nonspecific protein binding was blocked by adding 3% BSA in 100 mM Tris, pH 8.5, 150 mM NaCl, 0.05% Tween-20 (TBST) to each well for an additional 1 hr at 23° C. Then, aliquots of 5 μg of total cellular protein from meniscal or TC28 cells that had been lysed and sonicated (in 5 mM Tris HCl, 0.25 M sucrose, 0.2 mM MgSO4, 2 mM DTT, 0.4 mM PMSF, 0.4% Triton X100, pH 7.5), were added to the plate in triplicate. To measure TGase in extracts of whole menisci, 50 mg dry weight of tissue from the central zone of each medial meniscus was used as the source (after solubilization and sonication) for aliquots of 5 μg of soluble protein. Fifty μl of solution A (100 mM Tris, pH 8.5 and 20 mM CaCl2) was added to all samples for TGase assay, followed by the addition of 50 μl of solution B (100 mM Tris, pH 8.5, 40 mM DTT and freshly added 2 mM 5-(Biotinamido) pentylamine (BP)). The plates were incubated for 1 hr at 37° C. The wells were washed once with TBST containing 1 mM EDTA and then three times with TBST. […] Readings at OD410 were taken over 15 minutes. […] TGase activity was designated as the amount of BP incorporated into casein (per μg cellular DNA, determined chromogenically following precipitation in perchlorate (28), or, where indicated, per μg protein, determined as previously described (28)). […]

[3] = tested on: S100A11 mRNA in human articular chondrocytes; test: S100A11 mRNA expression by RT-PCR; assay type: cell-based; conditions: 10 ng/ml, 24 hours, relative to L30
Experimental: Normal human knee articular chondrocytes were treated in culture with IL-1 or IGF-I (10 ng/ml) for 24 hours and ascertained for S100A11 mRNA expression by RT-PCR, relative to the loading control L30, a ribosomal housekeeping gene. Results for induction of S100 A11 representative of 3 separate experiments with different donors.

[4] = tested on: alkaline phosphatase (AP); test: AP activity of cultured meniscal cells; assay type: cell-based, human; conditions: 48 h, 10 ng/ml
Experimental: (§1) Meniscal cells (from the same donors used in FIG. 3 above) were released from the matrix with collagenase digestion, and grown in monolayer culture for 72 hrs, then trypsinized and plated in 35 mm dishes (containing 3×10^5 cells) and allowed to adhere overnight. Cells were then treated for 48 h with 10 ng/ml of TGFβ or IL-1β (10 ng/ml) in 1% FCS-containing DMEM high glucose medium. The cells were collected and lysed for the TGase (FIG. 5A), NTPPPH (FIG. 5B), and AP (FIG. 5C) assays as described in the Methods. Five micrograms of soluble protein was studied in triplicate for each assay performed as previously described. Results were analyzed by linear regression, with results indicated.
(§2) PPi was determined by differential adsorption on activated charcoal of UDP-D-[6-^3H] glucose (Amersham, Chicago, Ill.) from the reaction product 6-phospho [6-^3H] gluconate (28). Units of NTPPPH and AP were designated as micromoles of substrate hydrolyzed per hour (per μg DNA in each sample) (28). NO release by cultured meniscal cells was measured using the Greiss reaction (33). Concentrations or specific activities of PPi, NTPPPH, and AP were equalized for cellular DNA concentrations in each well.

[5] = tested on: TGase activity (tTGase and Factor XIIIa) in meniscal cells; test: TGase activity in cultured knee meniscal cells (BP incorporation into N,N-dimethylcasein); assay type: cell-based, human; conditions: monolayer culture, 48-72 hrs; IL-1β, TGFβ, TNFα 10 ng/ml; Noc-12 2.5-25 μM; Sin-1 1-10 μM
Experimental: Meniscal cells were maintained in DMEM high glucose and supplemented with 10% FCS, 1% L-glutamine, 100 units/ml Penicillin and 50 μg/ml Streptomycin (Omega Scientific, Tarzana, Calif.) and cultured at 37° C. with 5% CO2. In monolayer cell culture studies involving stimulation by TGFE[…] or IL-1, the cells were placed in DMEM high glucose containing 1% FCS, 1% L-glutamine, 100 units/ml Penicillin and 50 μg/ml Streptomycin. In all other studies, the cells were cultured in complete medium (as described above). Only primary or first passage meniscal cells were studied.
TGase activity was measured by modifications to a previously described method (35). Specifically, we coated 96 well ImmunoModule plates (Nunc, Rochester, N.Y.) with 200 μl of 20 mg/ml N,N-dimethylcasein for 1 hr at 23° C. The N,N-dimethylcasein was removed and nonspecific protein binding was blocked by adding 3% BSA in 100 mM Tris, pH 8.5, 150 mM NaCl, 0.05% Tween-20 (TBST) to each well for an additional 1 hr at 23° C. Then, aliquots of 5 μg of total cellular protein from meniscal or TC28 cells that had been lysed and sonicated (in 5 mM Tris HCl, 0.25 M sucrose, 0.2 mM MgSO4, 2 mM DTT, 0.4 mM PMSF, 0.4% Triton X100, pH 7.5), were added to the plate in triplicate. To measure TGase in extracts of whole menisci, 50 mg dry weight of tissue from the central zone of each medial meniscus was used as the source (after solubilization and sonication) for aliquots of 5 μg of soluble protein. Fifty μl of solution A (100 mM Tris, pH 8.5 and 20 mM CaCl2) was added to all samples for TGase assay, followed by the addition of 50 μl of solution B (100 mM Tris, pH 8.5, 40 mM DTT and freshly added 2 mM 5-(Biotinamido) pentylamine (BP)). The plates were incubated for 1 hr at 37° C. The wells were washed once with TBST containing 1 mM EDTA and then three times with TBST. One hundred μl of a 1:500 dilution of streptavidin-AP in 3% BSA/TBST was added to each well for 1 hr at 23° C. The wells were washed twice with TBST, and 200 μl of solution C (100 mM Tris, pH 9.8, mM NaCl, 5 mM MgCl2, 1 mg/ml of freshly added p-nitrophenylphosphate) was added to each well. Readings at OD410 were taken over 15 minutes. Purified guinea pig liver TGase (Sigma) was used to prepare a standard curve. TGase activity was designated as the amount of BP incorporated into casein (per μg cellular DNA, determined chromogenically following precipitation in perchlorate (28), or, where indicated, per μg protein, determined as previously described (28)).
To directly induce expression of each TGase in meniscal cells, 5×10^5 primary cells were plated in 60 mm dishes and allowed to adhere overnight. We modified (28) the manufacturer's protocol for the Lipofectamine Plus kit (Life Technologies, Grand Island, N.Y.). To optimize the transfection of meniscal cells, we added 2.0 ml of serum-free DMEM/F12 containing 0.00015% digitonin to washed cells and incubated for 3 min at 23° C. Then, media was removed, and cells transfected at 37° C. for 7 hrs, followed by removal of the media and addition of complete DMEM high glucose medium. Transfection of each TGase into TC28 cells was done by the same procedure, with the exception that the digitonin permeabilization step was omitted.

NTPPPH = NTPPPH activity of cultured meniscal cells; assay type: cell-based, human; conditions: 48 h, 10 ng/ml
Experimental: as §1, §2

[6] = tested on: tTGase and Factor XIIIa expression in knee articular cartilage and medial meniscus; test: Immunohistochemistry of cartilage organ culture; assay type: cell-based, human; conditions: organ culture 48 hours
Experimental: Articular cartilage and medial menisci from normal donors were studied in cartilage organ culture in media supplemented with 1% FCS and 1% L-glutamine, as described in the Methods, following 48 hours of treatment with TGFβ 10 ng/ml, IL-1β (1 ng/ml), or medium alone.
Immunohistochemistry was performed as previously described in detail (30,33,34). In brief, immunohistochemical sections (5 microns) were pretreated with bovine testicular hyaluronidase (0.5 mg/ml at 37° C. for 30 min) and incubated in 5% normal goat or rabbit serum for 20 min prior to avidin/biotin peroxidase staining by the ABC method. Hematoxilin was used as the counterstain. Biotinylated anti-rabbit or anti-goat antibodies served as secondary antibodies. Levamisole was added to block endogenous alkaline phosphatase (AP). Negative controls were nonimmune rabbit or goat serum as a substitute for primary antibody.
Meniscal cells were taken from tissue slices removed from the central regions of the medial and lateral menisci. Where indicated, meniscal organ culture was performed by incubating these slices for b 48 hours in DMEM high glucose containing 1% FCS and 1% L-glutamine (and articular cartilage organ culture performed in the same manner, where indicated). Otherwise, we minced meniscal tissue with a scalpel, incubated in DMEM high glucose containing 2 mg/ml clostridial collagenase, 5% FCS, 1% L-glutamine, 100 units/ml Penicillin and 50 μg/ml Streptomycin (Omega Scientific, Tarzana, Calif.), and incubated on a gyratory shaker at 37° C. until the tissue fragments were digested. Residual multicellular aggregates were removed by sedimentation (1,000×g), and cells were washed three times in DMEM containing 5% FCS.

Factor XIIIa: recombinant human Factor XIIIa cDNA in pUC18, transfected into meniscal and TC28 cells
Matrix calcification (bound Alizarin Red S) [1]: induced particularly marked increases in the amount of calcium precipitated in the matrix
TGase activity under mineralizing nonadherent conditions [2]: markedly increased TGase activity

IGF-1: IGF-1, involved in the pathogenesis of osteoarthritis
S100A11 mRNA expression [3]: induce mRNA expression of S100A11

TGFβ: Human recombinant TGF-β1 purchased from R&D Systems
AP activity [4]: did not significantly change
Induction of TGase activity in cultured normal knee meniscal cells [5]: did not induce TGase activity; also recorded: but not TGFβ
NTPPPH activity (NTPPPH): stimulated increased NTPPPH activity in association with aging
tTGase and Factor XIIIa immunostaining ([6]; knee articular cartilage and meniscal cartilage slices, TGFβ 10 ng/ml, IL-1β 1 ng/ml): induced increased tTGase and Factor XIIIa immunostaining
tTGase expression ([6]; knee articular cartilage): up-regulated tTGase expression
TGase activity under mineralizing nonadherent conditions [2]: did not significantly augment activity of TGase

tTGase: human 3.3 kb full length tTGase cDNA construct in pSG5, transfected into cells
Matrix calcification (bound Alizarin Red S) [1]: induced particularly marked increases in the amount of calcium precipitated in the matrix
TGase activity under mineralizing nonadherent conditions [2]: markedly increased TGase activity
